According to the C3SDB collision cross section collection:
Where a name gives a salt, the structure may show the parent alone.

Key:
[1] = instrument: DT, stepped-field
[2] = instrument: DT, single field, calibrated with Agilent tune mix (Agilent)

Row | Structure (SMILES) | collision cross section (N2) ([1]; [M+Na]+) | collision cross section (N2) ([2]; [M-H]-) | further results
1 | Nc1ncnc2c1ncn2[C@H]1C[C@H](O)[C@@H](CO)O1 [2'-Deoxyadenosine] | 166.67 Å² | – | collision cross section (N2) ([1]; [M+H]+): 162.73 Å²
2 | N[C@@H](Cc1ccccc1Cl)C(=O)O [2-Chloro-L-Phenylalanine] | – | – | collision cross section (N2) ([1]; [M+H]+): 148.86 Å²
3 | Cc1ccccc1C(=O)NCC(=O)O [2-Methylhippuric Acid] | 156.6 Å² | – | –
4 | CC(C)=CC(=O)SCCNC(=O)CCNC(=O)C(O)C(C)(C)COP(=O)(O)OP(=O)(O)OC[C@H]1O[C@@H](n2cnc3c(N)ncnc32)[C@H](O)[C@@H]1OP(=O)(O)O (stereo partly drawn) [3-Methylcrotonyl-CoA] | – | – | collision cross section (N2) ([1]; [M+H]+): 180.03 Å²
5 | CC(=O)NCCCC(=O)O [4-Acetamidobutanoic Acid] | 138.57 Å² | – | –
6 | NC(N)=NCCCC(=O)O [4-Guanidinobutanoic Acid] | – | – | collision cross section (N2) ([1]; [M+H]+): 132.8 Å²
7 | N[C@@H](Cc1c[nH]c2ccc(O)cc12)C(=O)O [5-Hydroxy-L-Tryptophan] | 156.47 Å² | – | collision cross section (N2) ([1]; [M+H]+): 157.88 Å²
8 | C[C@@H]1OC(O)[C@@H](O)[C@H](O)[C@@H]1O (stereo partly drawn) [6-Deoxy-L-galactose] | 147.32 Å² | – | –
9 | O=C(O)c1ccc(=O)[nH]c1 [6-Hydroxynicotinate] | – | – | collision cross section (N2) ([1]; [M+H]+): 136.43 Å²
10 | O=C(O)[C@H](O)[C@@H](O)[C@H](O)[C@H](O)COP(=O)(O)O [6-Phosphogluconic Acid] | 167.16 Å² | – | –
11 | CCCCC/C=C\C=C\C(O)CCCCCCCC(=O)O (stereo not drawn) [9-HODE] | 189.14 Å² | – | –
12 | CCCCCC(=O)/C=C/C=C/CCCCCCCC(=O)O [13-OxoODE] | 193.37 Å² | – | collision cross section (N2) ([1]; [M+H]+): 179.4 Å²
13 | CCCCCC1OC1C/C=C\C/C=C\C/C=C\CCCC(=O)O (stereo not drawn) [14(15)-EET] | 187.07 Å² | – | collision cross section (N2) ([1]; [M+H]+): 182.43 Å²
14 | CCCCCCCCCCCCCCCCCC(=O)OC[C@@H](O)COP(=O)([O-])OCC[N+](C)(C)C [18:0 Lyso PC] | 243.07 Å² | – | –
15 | CCOCN(C(=O)CCl)c1c(C)cccc1CC [Acetochlor] | 174.6 Å² | – | collision cross section (N2) ([1]; [M+H]+): 160.09 Å²
16 | CC(=O)Oc1ccccc1C(=O)O [Acetylsalicylic Acid] | 146.8 Å² | – | –
17 | Nc1ncnc2c1ncn2[C@@H]1O[C@H](COP(=O)(O)OP(=O)(O)O)[C@@H](O)[C@H]1O [Adenosine 5' Diphosphate] | 196.92 Å² | – | collision cross section (N2) ([1]; [M+H]+): 188.61 Å²
18 | NC(=O)NC1NC(=O)NC1=O (stereo not drawn) [Allantoin] | 145.61 Å² | – | –
19 | O=C1c2ccccc2C(=O)c2ccccc21 [Anthraquinone] | – | – | collision cross section (N2) ([1]; [M+H]+): 141.89 Å²
20 | CCCCCCCCCCCCCCCCCCCC(=O)O [Arachidic Acid] | 199.97 Å² | – | –
21 | C[C@@H]1O[C@@H](O[C@H]2C(=O)c3c(O)cc(O)cc3O[C@@H]2c2ccc(O)c(O)c2)[C@H](O)[C@H](O)[C@H]1O [Astilbin] | 212.64 Å² | – | collision cross section (N2) ([1]; [M+H]+): 205.87 Å²
22 | C=C1C2CCC(C2)C1(C)C (stereo not drawn) [Camphene] | 133.01 Å² | – | collision cross section (N2) ([1]; [M+H]+): 130.63 Å²
23 | CCCCC[C@H](O)/C=C/[C@H]1CC2CC(C2)[C@@H]1C/C=C\CCCC(=O)O [Carbocyclic Thromboxane A2] | 203.6 Å² | – | –
24 | OC[C@H]1O[C@@H](O[C@H]2[C@H](O)[C@@H](O)[C@H](O[C@H]3[C@H](O)[C@@H](O)[C@H](O[C@H]4[C@H](O)[C@@H](O)[C@H](O[C@H]5[C@H](O)[C@@H](O)[C@H](O[C@H]6[C@H](O)[C@@H](O)[C@H](O)O[C@@H]6CO)O[C@@H]5CO)O[C@@H]4CO)O[C@@H]3CO)O[C@@H]2CO)[C@H](O)[C@@H](O)[C@@H]1O [Cellohexaose] | 283.13 Å² | – | –
25 | OC[C@H]1O[C@@H](O[C@H]2[C@H](O)[C@@H](O)[C@H](O[C@H]3[C@H](O)[C@@H](O)[C@H](O[C@H]4[C@H](O)[C@@H](O)[C@H](O[C@H]5[C@H](O)[C@@H](O)C(O)O[C@@H]5CO)O[C@@H]4CO)O[C@@H]3CO)O[C@@H]2CO)[C@H](O)[C@@H](O)[C@@H]1O (stereo partly drawn) [Cellopentaose] | 251.04 Å² | – | –
26 | O=C/C=C/c1ccccc1 [Cinnamaldehyde] | – | – | collision cross section (N2) ([1]; [M+H]+): 134.25 Å²
27 | O=C(O)/C=C/c1ccccc1 [Cinnamic Acid] | – | – | collision cross section (N2) ([1]; [M+H]+): 145.31 Å²

Row | Structure (SMILES) | collision cross section (N2) ([1]; [M+Na]+) | collision cross section (N2) ([2]; [M-H]-) | further results
28 | O=C(O)C1(O)C[C@@H](O)C(O)[C@H](O)C1 (stereo partly drawn) [Quinate] | – | 132.25 Å² | collision cross section (N2) ([2]; [M+Na]+): 150.9 Å²
29 | OC[C@@H](O)C(O)[C@@H](O)CO (stereo partly drawn) [Ribitol] | – | – | collision cross section (N2) ([2]; [M+Na]+): 136.3 Å²
30 | Cc1cn([C@@H]2O[C@H](CO)[C@@H](O)[C@H]2O)c(=O)[nH]c1=O [Ribothymidine] | – | 153.52 Å² | collision cross section (N2) ([2]; [M+Na]+): 165.6 Å²
31 | O=C(/C=C/c1ccc(O)c(O)c1)O[C@H](Cc1ccc(O)c(O)c1)C(=O)O [Rosmarinic Acid] | – | 170.26 Å² | collision cross section (N2) ([2]; [M+Na]+): 195.6 Å²
32 | COc1cc(/C=C/CO)cc(OC)c1O [Sinapyl alcohol] | – | 146.84 Å² | collision cross section (N2) ([2]; [M+H-H2O]+): 136.5 Å²
33 | NCCCNCCCCNCCCN [Spermine] | – | – | collision cross section (N2) ([2]; [M+H]+): 148.2 Å²
34 | CCCCCCCCCCCCCCC[C@@H](O)[C@@H](N)CO [Sphinganine] | – | – | collision cross section (N2) ([2]; [M+H]+): 188 Å²
35 | CCCCCCCCCCCCC/C=C/[C@@H](O)[C@@H](N)CO [Sphingosine] | – | – | collision cross section (N2) ([2]; [M+H]+): 186 Å²
36 | CCCCCCCCCCCCCCCCCC(=O)SCCNC(=O)CCNC(=O)[C@H](O)C(C)(C)COP(=O)(O)OP(=O)(O)OC[C@H]1O[C@@H](n2cnc3c(N)ncnc32)[C@H](O)[C@@H]1OP(=O)(O)O [Stearoyl-CoA] | – | 301.81 Å² | collision cross section (N2) ([2]; [M+H]+): 302.9 Å²
37 | CNCC(O)c1ccc(O)cc1 (stereo not drawn) [Synephrine] | – | – | collision cross section (N2) ([2]; [M+H-H2O]+): 134.4 Å²
38 | CCCCCCCCCCCCCCCCCCCCCCCC(=O)O [Tetracosanoic acid] | – | 197.93 Å² | –
39 | Cc1ncc(C[n+]2csc(CCO)c2C)c(N)n1 [Thiamine] | – | 160.3 Å² | collision cross section (N2) ([2]; [M+H]+): 162.4 Å²
40 | CC(=O)N[C@H]1[C@@H](OP(=O)(O)OP(=O)(O)OC[C@H]2O[C@@H](n3ccc(=O)[nH]c3=O)[C@H](O)[C@@H]2O)O[C@H](CO)[C@@H](O)[C@@H]1O [UDP-N-acetylglucosamine] | – | 222 Å² | collision cross section (N2) ([2]; [M+H]+): 208.8 Å²
41 | O=c1ccn([C@@H]2O[C@H](COP(=O)(O)OP(=O)(O)OP(=O)(O)O)[C@@H](O)[C@H]2O)c(=O)[nH]1 [Uridine 5'-triphosphate] | – | 178.55 Å² | –
42 | O=C(O)CCC1=C(CC(=O)O)c2cc3nc(cc4[nH]c(cc5[nH]c(cc1n2)c(CC(=O)O)c5CCC(=O)O)c(CC(=O)O)c4CCC(=O)O)C(CC(=O)O)=C3CCC(=O)O [Uroporphyrin I] | – | 267.79 Å² | collision cross section (N2) ([2]; [M+H]+): 285.1 Å²
43 | COc1cc(C=O)ccc1O [Vanillin] | – | 124.3 Å² | collision cross section (N2) ([2]; [M+H]+): 129.7 Å²
44 | CC1=C(C/C=C(\C)CCC[C@H](C)CCC[C@H](C)CCCC(C)C)C(=O)c2ccccc2C1=O [Vitamin K1] | – | 210.94 Å² | collision cross section (N2) ([2]; [M+H]+): 216.1 Å²
45 | O=C(O)c1cc(=O)c2cccc(O)c2[nH]1 [Xanthurenic acid] | – | 132.51 Å² | collision cross section (N2) ([2]; [M+H]+): 140.5 Å²
46 | CC/C=C\C/C=C\C/C=C\CCCCCCCC(=O)O [alpha-Linolenic acid] | – | 173.07 Å² | collision cross section (N2) ([2]; [M+H]+): 170.7 Å²
47 | Cc1c(C)c2c(c(C)c1O)CC[C@@](C)(CCC[C@H](C)CCC[C@H](C)CCCC(C)C)O2 [alpha-Tocopherol] | – | 208.52 Å² | collision cross section (N2) ([2]; [M+H]+): 216.6 Å²
48 | Nc1nc(=O)c2ncn([C@@H]3O[C@@H]4COP(=O)(O)O[C@H]4[C@H]3O)c2[nH]1 [cGMP] | – | – | collision cross section (N2) ([2]; [M+H]+): 172.8 Å²
49 | O=C(O)[C@H]1C[C@@H](O)CN1 [cis-4-Hydroxy-D-proline] | – | 122.02 Å² | collision cross section (N2) ([2]; [M+H]+): 128.4 Å²
50 | N[C@@H](CCC(=O)N[C@@H](CCC(=O)O)C(=O)O)C(=O)O [gamma-L-Glutamyl-L-glutamic acid] | – | – | collision cross section (N2) ([2]; [M+H]+): 162.6 Å²; collision cross section (N2) ([2]; [M-H2O-H]-): 152.43 Å²
51 | OC1C(O)C(O)C(O)C(O)C1O (stereo not drawn) [myo-Inositol] | – | 128.61 Å² | collision cross section (N2) ([2]; [M+Na]+): 148.2 Å²
52 | CC(=O)[C@H]1CC[C@H]2[C@@H]3CC=C4C[C@@H](OS(=O)(=O)O)CC[C@]4(C)[C@H]3CC[C@]12C [pregnenolone sulfate] | – | 203.91 Å² | –
53 | CCCCC/C=C/C(=O)O [trans-2-Octenoic acid] | – | 141.13 Å² | –
54 | O=C(O)/C=C/c1ccccc1 [trans-cinnamate] | – | – | collision cross section (N2) ([2]; [M+H]+): 125.3 Å²
